Common to all, as to type: physicochemical
Series [1] is described as follows: pKFI determination: tryptophan fluorescence pH titration. Particulars: lipid:peptide 150:1; for pKFI in the presence of NaCl: 150 mM NaCl, POPC and POPC/POPS (9/1) gave similar pKFI; for effect of 150 mM NaCl on the pKFI: POPC vesicles, compared with no NaCl, result in words.
A short description of series [2]: pKFI determination: tryptophan fluorescence pH titration with PS in the vesicles. The following applies: for PS50 (amount of PS needed to reach 50% of change in pKFI): hyperbolic fit (Eq. 2) of pKFI versus molar percent POPS, 0-20%.
Series [3] in a line: Tryptophan fluorescence emission spectra at acidic and basic pH. Particulars: POPC, Trp fluorescence, λex 280 nm.
Experiment in series [4]: as above
The following applies: POPC/POPS (9/1), Trp fluorescence, λex 280 nm.

Where [5] appears, read: POPC/POPS vesicles, PS 0-20 mol%, lipid:peptide 200:1, 1 μM peptide.

In the case of “GKAGKAGLLGLEGLLGLPLGLLEGLWLGLELEGN [K2-ATRAM]”, the “pKFI in the presence of NaCl” value in series [1] is recorded as roughly 5.4. Also, the “effect of 150 mM NaCl on the pKFI” value in series [1] is reported as “no change”. Moreover, the “increase in the pKFI caused by PS” value in series [2] (setting [5]) was roughly 0.4 pH units. Besides, the “PS50 (amount of PS needed to reach 50% of change in pKFI)” value in series [2] was 1.9 % PS. Moreover, the Fluorescence spectral maxima in series [3] (acidic pH (pH 4)) was determined as 329.7 ± 1.2 nm; in series [3] (basic pH (pH 8)), 342.1 ± 2.1 nm; in series [4] (acidic pH (pH 4)), 320.2 ± 1.7 nm; in series [4] (basic pH (pH 8)), 331.7 ± 1.8 nm.

In the case of “GLAGLAGLLGLEGLLGLPLGLLEGLWLGLELEGN [ATRAM, acidity-triggered rational membrane (ATRAM) peptide]”, the “pKFI in the presence of NaCl” value in series [1] was roughly 5.7. In series [1], the “effect of 150 mM NaCl on the pKFI” value is given as “decreased”. Besides, the “effect of PS on the pKFI” value in series [2] (POPC/POPS vesicles, seven PS levels between 0-20%, result in words) is on record as “not significantly affected”. Further, the Fluorescence spectral maxima in series [3] (acidic pH (pH 4)) was found to be 327.3 ± 0.7 nm; in series [3] (basic pH (pH 8)), 341.1 ± 2.3 nm; in series [4] (acidic pH (pH 4)), 330.8 ± 0.8 nm; in series [4] (basic pH (pH 8)), 350.9 ± 1.0 nm.

For “GYAGLAGLLGLEGLLGLPLGLLEGLWLGLELEGN [Y-ATRAM]”, the “pKFI in the presence of NaCl” value in series [1] is listed as roughly 5.7. Besides, the “effect of 150 mM NaCl on the pKFI” value in series [1] is listed as “decrease”. In addition, the “decrease in the pKFI caused by PS” value in series [2] (setting [5]) is roughly 0.3 pH units. Besides, the “PS50 (amount of PS needed to reach 50% of change in pKFI)” value in series [2] was found to be 0.5 % PS. Further, the Fluorescence spectral maxima in series [3] (acidic pH (pH 4)) was found to be 324.5 ± 2.9 nm; in series [3] (basic pH (pH 8)), 343.9 ± 3.6 nm; in series [4] (acidic pH (pH 4)) it was 320.5 ± 1.9 nm; in series [4] (basic pH (pH 8)), 342.7 ± 2.3 nm.

These data come from doi:10.1101/623967v1 (bioRxiv, 2019).
